Measured values: US12433892B2, “Compositions and methods of treatment for neurological disorders comprising depression” (Gliapharm SA, priority 2018, dated 2025)
Where a name gives a salt, the structure may show the parent alone.

Tests used:
[1] = system: cerebral extracellular lactate; test: In vivo pharmacodynamics: lactate biosensors in cortex; design: species or system mouse; conditions: 10 mg/kg per os
Experimental: Extracellular levels of lactate were monitored in vivo using lactate biosensors (Pinnacle Technology), according to the manufacturer's instructions. Cannulae were surgically implanted in mice cerebral cerebral motor cortex areas M1/M2 (coordinates: +1.94 mm (to bregma), lateral −1.4 mm (to mideline), ventral −1.0 mm (to dura)) 5-7 days before administration of the compounds. Drugs were administered per os as previously described, and cerebral levels of extracellular lactate were dynamically recorded for 6 hours. Mice were administered vehicle alone first, followed 3 hours later by vehicle or drug (10 or 100 mg/kg). Area Under the Curve (AUC) quantifying the fluctuations of extracellular lactate concentrations for each of the compound tested was calculated using Graphad Prism and the ratio of AUC after drug over Vehicle administration was calculated. Groups of 8 male mice were used for each condition.
To measure biological effect of lead molecules in vivo in the brain, lactate levels were quantified after administration of the drug by using lactate biosensors implanted in the cortex of freely moving mice.

[2] = In vivo pharmacokinetics (PFC microdialysis and plasma); design: species or system mouse; conditions: after gavage with 100 mg/kg
Experimental: Mice were anesthetized using isoflurane (2% and 800 mL/min O2). Before surgery, Finadyne (1 mg/kg, s.c.) was administered for analgesia during surgery and the post-surgical recovery period. A mixture of bupivacaine and epinephrine was used for local anesthesia of the incision site of the periost of the skull.
The animals were placed in a stereotaxic frame (Kopf instruments, USA). MetaQuant microdialysis probes with a 3 mm exposed polyacrylonitrile membrane (MQ-PAN 3/3, Brainlink, the Netherlands) were implanted into the prefrontal cortex (coordinates for the tip of the probe: AP=+2.0 mm (to bregma), lateral=−0.7 mm (to midline), ventral=−3.3 mm (to dura), with the incisor bar set at 0.0 mm and an angle of 8°). All coordinates were based on “The mouse brain in stereotaxic coordinates” by Paxinos and Franklin (2004). The probes were attached to the skull with a stainless steel screw and dental cement (Fuji Plus Capsules, Henry Schein, the Netherlands).
In the same surgical procedure, a catheter was placed into the jugular vein to accommodate blood sampling. An indwelling cannula was inserted into the right jugular vein, and exteriorized through an incision on top of the skull. The end of the jugular vein catheter was fixed in position with dental acrylic cement and attached to the skull with two stainless steel screws.
Experiments were initiated one day after surgery. The MetaQuant microdialysis probes were connected with flexible PEEK tubing (Western Analytical Products Inc. USA; PK005-020) to a microperfusion pump (CMA Microdialysis) and perfused with aCSF+0.2% BSA at a flow rate of 0.12 μL/min. Ultrapurified water+0.2% BSA was used as the carrier flow at a flow rate of 0.80 μL/min. After a minimum of 1.5 hours of prestabilization, microdialysis samples were collected in 30 minute intervals. Samples were collected into polystyrene microvials (Microbiotech/se AB, Sweden; 4001029) using an automated fraction collector (UV 8301501, TSE, Univentor, Malta). After collection of three basal samples, at t=0 minutes, drug of interest was administered per os. Eight additional samples were collected after compound administration. All samples were stored at −80° C. until off-line analysis.
In parallel, blood samples (50 μL) were taken from the jugular vein through the cannula. These samples were collected at specified intervals into vials containing 5 μL heparin (500 IE/mL in saline). The samples were mixed by inverting the tubes and, subsequently, centrifuged at 4000 rpm (1500×g) for 10 min at 4° C. The supernatant was stored as plasma in 1.5 mL Eppendorf vials (Sarstedt, Germany) at −80° C. until off-line analysis.
At the end of the experiment, the animals were euthanized and terminal brain tissue was collected for visual histological verification of the probe positions.
PK was measured for GP-04, GP-05, GP-07, GP-R1 and GP-P1 in the PFC (prefrontal cortex) and plasma of wild type C56Bl/6 mice by CRO Brainsonline.

[3] = system: C57Bl/6 male and female mice; test: In vivo chronic toxicity (28 days)
Experimental: During this period, clinical symptoms and weight were recorded.
Chronic toxicity was assessed.

C57Bl/6 mice [4] = test: Grip strength test (GST); assay type: in vivo, mouse; conditions: 100 mg/kg per os, 1.5 hr
Experimental: (§1) The depression mouse model features wild-type C57Bl/6 laboratory mice without any transgenic changes. To ensure that the actions of the tested molecules in the animal models of depression are not due to effects on locomotor activity or muscle strength in animals, molecules are administered to mice that are then tested in the grip strength test (GST) and in the open-field test (OFT) following the protocols described in Carrard et al. (Carrard, Elsayed, Margineanu, Boury-Jamot, Frangiere, Meylan, Petit, Fiuemlli, Magistretti and Martin. Peripheral administration of lactate produces antidepressant-like effects. Molecular Psychiatry, 2016 Oct. 18, e-pub). If alterations in muscle strength and/or locomotor activity are measured following administration drug, no further analyses are performed with this molecule.
GST is a test used to identify molecules that could modulate mouse grip strength, which might affect results in the FST. 1.5 hr after a single oral molecules administration, mice are placed on a grid dynamometer and the muscle strength (N) or their two front paws or all their four paws is measured in 3 consecutive sessions, and the best score is recorded.

astrocytes [5] = test: Intracellular glycogen quantification; assay type: cell-based, mouse; conditions: Prestwick hits; 10 uM, 3 h
C57Bl/6 mice [6] = test: Open field test (OFT); assay type: in vivo, mouse; conditions: 100 mg/kg per os, 1.5 hr
Experimental: as §1
OFT is a test used to identify molecules that could modulate mouse activity, which might affect results in the FST. 1.5 hr after a single oral molecules administration, mice are placed in a 39 cm (long)×33 cm (large)×33 cm (high) open box and their activity is videotaped for 10 minutes. Mouse activity is then automatically scored using Ethovision pro video tracking system (Noldus).

C57Bl/6 mice [7] = test: Forced swim test (FST); assay type: in vivo, mouse; conditions: 100 mg/kg per os, 1.5 hr
Experimental: as §1
FST is a test used to identify molecules that produce an acute antidepressant-like behavioral response.
1.5 hr after a single oral (vehicle or lactate-enhancing molecules) or intraperitoneal (vehicle, fluoxetine or despratmine) administration, mice are placed in a cylindrical container filled to a depth of 15 cm with water (23-25° C.). 6-min swim session are videotaped, and time spent immobile, which reflects the animal depressive-like behavior, is scored subsequently by an experimenter blind to the conditions used.

astrocytes [8] = test: Extracellular lactate quantification; assay type: cell-based, mouse; design: Score_LACTATE / Score Lact.: scale not given here; conditions: Appendix I; secondary screening, dosage of extracellular lactate
Experimental: Primary cultures of cerebrocortical astrocytes were obtained from 1-2-day-old OF1 mouse pups (Charles River Laboratories). Briefly, cortices were isolated and minced in small pieces under a dissecting microscope. The cells were incubated for 30 min at 37° C. in a solution containing 20 U/ml of papain enzyme (Worthington Biochemical), L-cysteine 1 mM (Sigma), and 10 kU/ml DNase I (Worthington Biochemical) for an enzymatic dissociation. Papain activity was stopped by the addition of fetal calf serum (FCS) to the solution, and a single-cell suspension was then obtained by mechanical dissociation, which consisted in cells trituration in a DMEM (D7777, Sigma-Aldrich) medium (supplemented with 44 mm NaHCO3, and 10 ml/L antibiotic/antimycotic solution) containing 10% FCS. The cells were seeded at an average density of 6×10^4 cells/cm^2 in poly-D-lysine-coated 96, 12 or 6-well culture plates, depending on their use, and incubated at 37° C. in a humidified atmosphere containing 5% CO2/95% air. Culture medium was renewed twice per week. Cells were stimulated and harvested between DIV14 and DIV17, when confluence and cell growth were optimal.
Secretion of L-lactate was determined in the extracellular medium of 96-well plated astrocytes after 90 min stimulation (at 37° C., in 5% CO2/95% air conditions) with the drug of interest. The stimulation medium was composed of D5030 medium (completed with D-glucose 5 mM and 44 mM sodium bicarbonate) for 90 min in concentrations ranging from 0 to 100 μM.
Briefly, 200 μl of a Glycine (Sigma)-Semicarbazide (Acros) 0.2M pH 10 buffer containing 3 mM NAD (Roche) and LDH 14 U/ml (Roche) was added to each well of a 96-well plate containing 30 μl aliquots complemented with 20 μl fresh complete D5030 medium. Samples were incubated at 37° C. for 1 h. After samples cooled down at room temperature, the fluorescence intensity (340 nm excitation/450 nm emission) that represents the amount of NADH produced was measured, and lactate concentration values were determined from a standard curve of L-lactate.
Statistical analysis consisted in ANOVA followed by Fisher LSD post-hoc test for pair-wise comparisons.
Levels of lactate secreted by astrocytes were measured in the extracellular medium at 90 min after stimulation with hits (molecules) from the CDC54K library.

primary astrocytes = test: High throughput screening (HTS) for lactate secretion: acidification of extracellular medium (SNARF5); assay type: cell-based, mouse; conditions: Appendix I; primary screening confirmation (SNARF5)
Experimental: Primary cultures of cerebrocortical astrocytes were obtained from 1-2-day-old OF1 mouse pups (Charles River Laboratories). Briefly, cortices were isolated and minced in small pieces under a dissecting microscope. The cells were incubated for 30 min at 37° C. in a solution containing 20 U/ml of papain enzyme (Worthington Biochemical), L-cysteine 1 mM (Sigma), and 10 kU/ml DNase I (Worthington Biochemical) for an enzymatic dissociation. […]
Secretion of lactate in a high-throughput screening (HTS) fashion was measured indirectly through the acidification of extracellular medium. […]
After 90 min stimulation, fluorescence was read at exc. […] The ratio of fluorescence between 630 nm and 580 emission values, which represents extracellular pH, was calculated.
In each plate, 8 wells were used for negative controls (DMSO) and 8 wells were used for positive controls (CCCP 2 uM in DMSO). Z prime values were calculated for each of the plates tested and values<0 were discarded.
The average and SD of compounds' values tested in duplicates were calculated, and compound was noted as HIT when the difference between compound's average and negative control's average was greater than three times the sum of compound's SD and negative controls' SD. […] Scores are calculated as the % of activity compared to the positive control in each plate (which is 100%). […]

## COc1ccc(Cc2nccc3cc(OC)c(OC)cc23)cc1OC [Papaverine hydrochloride]
[1]
  cerebral lactate (AUC ratio vs vehicle): Significant increase
[2]
  levels in the PFC: at therapeutic range (100 nM to 1 uM) and sustained over several hours
[3]; 10 mg/kg per os once a day, 28 days
  chronic toxicity (toxic or safe): safe
[3]; chronic 10 mg/kg, liver, kidney
  pathological analysis: minor treatment-related effects
C57Bl/6 mice [4]
  grip strength: does not affect
Astrocytes [5]
  Glycogen (statistical significance of glycogen degradation): **** (****p<0.0001)
C57Bl/6 mice [6]
  activity (open field): does not affect
C57Bl/6 mice [7]
  time spent immobile: significant reduction

## O=C(C[n+]1cc(-c2ccccc2)n2c1CCC2)c1ccc(Br)cc1.[Br-] [T0502-5560]
Astrocytes [8]
  Score_LACTATE: 0.8524
Primary astrocytes
  Score_SNARF: 0.8504
